Data taken from patent US20130217664A1, “NOVEL COMPOUNDS USEFUL FOR THE TREATMENT OF DEGENERATIVE AND INFLAMMATORY DISEASES” (priority 2012, published 2013).

How the values were obtained:
human JAK2 = target: T1, human JAK2 (Homo sapiens, UniProt O60674); test: JAK2 inhibition assay (polyGT substrate / Ulight-JAK1 peptide); type: biochemical; details: recombinant human JAK2 catalytic domain; polyGT or Ulight-JAK1 peptide assay
T1 construct: catalytic domain (amino acids 808-1132; catalog number PV4210); GST; purchased Invitrogen PV4210
Experimental: 1.2 JAK2 Inhibition Assay
1.2.1 JAK2 Assay polyGT Substrate
0.025 mU of JAK2 is incubated with 2.5 μg polyGT substrate (Sigma catalog number P0275) in kinase reaction buffer (5 mM MOPS pH 7.5, 9 mM MgAc, 0.3 mM EDTA, 0.06% Brij and 0.6 mM DTT, 1 μM non-radioactive ATP, 0.25 μCi ^33P-gamma-ATP (GE Healthcare, catalog number AH9968) final concentrations) with or without 5 μL containing test compound or vehicle (DMSO, 1% final concentration), in a total volume of 25 μL, in a polypropylene 96-well plate (Greiner, V-bottom). After 90 min at 30° C., reactions are stopped by adding of 25 μL/well of 150 mM phosphoric acid. […] Plates are washed 6 times with 300 μL per well of a 75 mM phosphoric acid solution and the bottom of the plates is sealed. 40 μL/well of Microscint-20 is added, the top of the plates is sealed and readout is performed using the Topcount (Perkin Elmer). Kinase activity is calculated by subtracting counts per min (cpm) obtained in the presence of a positive control inhibitor (10 μM staurosporine) from cpm obtained in the presence of vehicle. The ability of a test compound to inhibit this activity is determined as:
Percentage inhibition=((cpm determined for sample with test compound present−cpm determined for sample with positive control inhibitor)divided by(cpm determined in the presence of vehicle−cpm determined for sample with positive control inhibitor))*100.
Dose dilution series are prepared for the compounds enabling the testing of dose-response effects in the JAK2 assay and the calculation of the IC50 for each compound.
1.2.2 JAK2 Ulight-JAK1 Peptide Assay
After 60 min at room temperature, reactions were stopped by adding 20 μL/well of detection mixture (1× detection buffer (Perkin Elmer, catalog number CR97-100C), 0.5 nM Europium-anti-phosphotyrosine (PT66) (Perkin Elmer, catalog number AD0068), 10 mM EDTA). […] Kinase activity was calculated by subtracting relative fluorescence units (RFU) obtained in the presence of a positive control inhibitor (10 μM staurosporine) from RFU obtained in the presence of vehicle. The ability of a test compound to inhibit this activity was determined as:
Percentage inhibition=((RFU determined for sample with test compound present−RFU determined for sample with positive control inhibitor)divided by(RFU determined in the presence of vehicle−RFU determined for sample with positive control inhibitor))*100.
Dose dilution series are prepared for compound enabling the testing of dose-response effects in the JAK2 assay and the calculation of the IC50 for the compound. Each compound is routinely tested at concentration of 20 μM followed by a 1/5 serial dilution, 10 points in a final concentration of 1% DMSO. […] The data are expressed as the average IC50 from the assays±standard error of the mean.

human JAK1 = target: T2, human JAK1 (Homo sapiens, UniProt P23458); test: JAK1 inhibition assay (polyGT substrate / Ulight-JAK1 peptide); type: biochemical; details: recombinant human JAK1 catalytic domain; polyGT or Ulight-JAK1 peptide assay
T2 construct: catalytic domain, amino acids 866-1154; catalog number PV4774; purchased Invitrogen PV4774
How it was run: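 Signal scaled between vehicle and 10 μM staurosporine. Radiometric polyGT reactions ran 45 min at 30 °C, counted after phosphoric-acid stop. Ulight peptide reactions ran 60 min at room temperature, fluorescence read after adding Eu-PT66 detection mix with EDTA.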

T1 sequence (O60674 808-1132): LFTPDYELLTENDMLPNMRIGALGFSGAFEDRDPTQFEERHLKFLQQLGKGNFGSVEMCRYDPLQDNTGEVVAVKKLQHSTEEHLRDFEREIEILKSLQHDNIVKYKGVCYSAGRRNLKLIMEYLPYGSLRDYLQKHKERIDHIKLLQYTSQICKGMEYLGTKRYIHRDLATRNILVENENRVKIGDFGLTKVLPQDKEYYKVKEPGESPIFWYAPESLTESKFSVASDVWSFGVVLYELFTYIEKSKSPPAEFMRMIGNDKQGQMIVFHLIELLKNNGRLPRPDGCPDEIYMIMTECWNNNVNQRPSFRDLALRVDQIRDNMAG
T2 sequence (P23458 866-1154): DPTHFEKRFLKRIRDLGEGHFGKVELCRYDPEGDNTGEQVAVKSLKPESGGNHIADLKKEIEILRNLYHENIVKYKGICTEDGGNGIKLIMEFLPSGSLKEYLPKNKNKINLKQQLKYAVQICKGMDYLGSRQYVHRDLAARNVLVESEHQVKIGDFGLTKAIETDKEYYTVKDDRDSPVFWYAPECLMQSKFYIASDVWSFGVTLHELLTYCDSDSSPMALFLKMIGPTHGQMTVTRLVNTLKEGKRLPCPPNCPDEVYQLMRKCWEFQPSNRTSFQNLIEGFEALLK

Cc1c(Oc2ccc(C#N)nc2)cccc1N(C)c1cc2c(cn1)ncn2C [Compound 90, 5-(2-methyl-3-(methyl(1-methyl-1H-imidazo[4,5-c]pyridin-6-yl)amino)phenoxy)picolino-nitrile]
IC50 (human JAK2): > 1000 nM
IC50 (human JAK1): 101 to 500 nM

CCc1c(C(=O)OC)cccc1N(C)c1cc2c(cn1)ncn2C [Compound 96, methyl 2-ethyl-3-(methyl(1-methyl-1H-imidazo[4,5-c]pyridin-6-yl)amino)benzate]
IC50 (human JAK2): > 1000 nM
IC50 (human JAK1): > 1000 nM

Cc1c(OCc2ccc(C#N)nc2)cccc1N(C)c1cc2c(cn1)ncn2C [Compound 97, 5-((2-methyl-3-(methyl(1-methyl-1H-imidazo[4,5-c]pyridin-6-yl)amino)phenoxy)methyl) picolinonitrile]
IC50 (human JAK2): > 1000 nM
IC50 (human JAK1): 101 to 500 nM

CCc1cc(C(=O)NCCc2ccccc2)ccc1N(C)c1cc2c(cn1)ncn2C [Compound 99, 3-ethyl-4-(methyl(1-methyl-1H-imidazo[4,5-c]pyridin-6-yl)amino)-N-phenethylbenzamide]
IC50 (human JAK2): > 1000 nM
IC50 (human JAK1): 101 to 500 nM

CCc1cc(C(=O)N2CCN(C)CC2)ccc1N(C)c1cc2c(cn1)ncn2C [Compound 100, (3-ethyl-4-(methyl(1-methyl-1H-imidazo[4,5-c]pyridin-6-yl)amino)phenyl)(4-methylpiperazin-1-yl)methanone]
IC50 (human JAK2): > 1000 nM
IC50 (human JAK1): 501 to 1000 nM

CCc1cc(C(=O)N2CCS(=O)(=O)CC2)ccc1N(C)c1cc2c(cn1)ncn2C [Compound 104, (1,1-Dioxothiomorpholin-4-yl)-{3-ethyl-4-[methyl-(1-methyl-1H-imidazo[4,5-c]pyridin-6-yl)-amino]-phenyl}-methanone]
IC50 (human JAK2): > 1000 nM
IC50 (human JAK1): > 1000 nM

CCc1cc(C(=O)N2CCC(N(C)C)C2)ccc1N(C)c1cc2c(cn1)ncn2C (stereo not shown) [Compound 106, (3-(dimethylamino)pyrrolidin-1-yl)(3-ethyl-4-(methyl(1-methyl-1H-imidazo[4,5-c]pyridin-6-yl)amino)phenyl)methanone]
IC50 (human JAK2): > 1000 nM
IC50 (human JAK1): > 1000 nM

CCc1ccc(C(N)=O)cc1N(C)c1cc2c(cn1)ncn2C [Compound 108, 4-ethyl-3-(methyl(1-methyl-1H-imidazo[4,5-c]pyridin-6-yl)amino)benzamide]
IC50 (human JAK2): > 1000 nM
IC50 (human JAK1): 101 to 500 nM

CCc1ccc(CO)cc1N(C)c1cc2c(cn1)ncn2C [Compound 109, (4-Ethyl-3-(methyl(1-methyl-1H-imidazo[4,5-c]pyridin-6-yl)amino)phenyl)MeOH]
IC50 (human JAK2): > 1000 nM
IC50 (human JAK1): 101 to 500 nM

CCc1cc(C(=O)N2CCC(OC)CC2)ccc1N(C)c1cc2c(cn1)ncn2C [Compound 112, (3-ethyl-4-(methyl(1-methyl-1H-imidazo[4,5-c]pyridin-6-yl)amino)phenyl)(4-methoxypiperidin-1-yl)methanone]
IC50 (human JAK2): > 1000 nM
IC50 (human JAK1): > 1000 nM

CCc1cc(C(=O)N2CC(C)(C)C2)ccc1N(C)c1cc2c(cn1)ncn2C [Compound 113, (3,3-dimethylazetidin-1-yl)(3-ethyl-4-(methyl(1-methyl-1H-imidazo[4,5-c]pyridin-6-yl)amino)phenyl)methanone]
IC50 (human JAK2): > 1000 nM
IC50 (human JAK1): > 1000 nM

CCc1ccc(C(=O)NCCOC)cc1N(C)c1cc2c(cn1)ncn2C [Compound 116, 4-Ethyl-N-(2-methoxyethyl)-3-(methyl(1-methyl-1H-imidazo[4,5-c]pyridin-6-yl)amino)benzamide]
IC50 (human JAK2): > 1000 nM
IC50 (human JAK1): 101 to 500 nM

CCc1cc(C(=O)N2CCOCC2)ccc1N(C)c1cc2c(cn1)ncn2C [Compound 117, (3-ethyl-4-(methyl(1-methyl-1H-imidazo[4,5-c]pyridin-6-yl)amino)phenyl)(morpho-lino)methanone]
IC50 (human JAK2): > 1000 nM
IC50 (human JAK1): 101 to 500 nM

CCc1cc(C(=O)N(C)C)ccc1N(C)c1cc2c(cn1)ncn2C [Compound 118, 3-ethyl-N,N-dimethyl-4-(methyl(1-methyl-1H-imidazo[4,5-c]pyridin-6-yl)amino)benzamide]
IC50 (human JAK2): > 1000 nM
IC50 (human JAK1): 101 to 500 nM

CCc1ccc(COC)cc1N(C)c1cc2c(cn1)ncn2C [Compound 122, N-(2-Ethyl-5-(methoxymethyl)phenyl)-N,1-dimethyl-1H-imidazo[4,5-c]pyridin-6-amine]
IC50 (human JAK2): > 1000 nM
IC50 (human JAK1): 101 to 500 nM

CCc1ccc(C(=O)Nc2cccnc2)cc1N(C)c1cc2c(cn1)ncn2C [Compound 124, 4-ethyl-3-(methyl(1-methyl-1H-imidazo[4,5-c]pyridin-6-yl)amino)-N-(pyridin-3-yl)benzamide]
IC50 (human JAK2): > 1000 nM
IC50 (human JAK1): 101 to 500 nM

CCc1ccc(C(=O)NCc2ccccn2)cc1N(C)c1cc2c(cn1)ncn2C [Compound 125, 4-ethyl-3-(methyl(1-methyl-1H-imidazo[4,5-c]pyridin-6-yl)amino)-N-(pyridin-2-ylmethyl)benzamide]
IC50 (human JAK2): > 1000 nM
IC50 (human JAK1): 101 to 500 nM

CCc1ccc(C(=O)NC)cc1N(C)c1cc2c(cn1)ncn2C [Compound 128, 4-ethyl-N-methyl-3-(methyl(1-methyl-1H-imidazo[4,5-c]pyridin-6-yl)amino)benzamide]
IC50 (human JAK2): > 1000 nM
IC50 (human JAK1): 101 to 500 nM

COc1ccc(Cc2cc3c(cn2)ncn3C)cc1 [Compound 275, 6-(4-methoxybenzyl)-1-methyl-1H-imidazo[4,5-c]pyridine]
IC50 (human JAK2): > 1000 nM
IC50 (human JAK1): > 1000 nM

CCc1ccccc1Oc1cc2c(cn1)ncn2C [Compound 298, 6-(2-Ethyl-phenoxy)-1-methyl-1H-imidazo[4,5-c]pyridine]
IC50 (human JAK2): > 1000 nM
IC50 (human JAK1): 501 to 1000 nM
